Reference: US20230159527A1, “COMPOUNDS AS BCL-2 INHIBITORS” (Fochon Pharmaceuticals, Ltd., priority 2020, published 2023)

Tests used:
Type in all cases: cell-based
Toledo cells = experiment: Cell proliferation assay, Toledo cells (MTS, 72 h); conditions: Homo sapiens, Toledo cells, MTS, read-out: Toledo IC50
How it was run: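 IC50 was derived from 490 nm absorbance after a 2 h MTS step. Before that, compounds at 1.5–10000 nM final (nine points) acted on Toledo cells for 72 h at 37 °C, 5% CO2. Cells were seeded at 30000/well in 10% FBS RPMI-1640 and rested 4 h before dosing.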

RS4;11-BCL-2 F104L cells = experiment: Cell proliferation assay, engineered RS4;11 cells stably overexpressing BCL-2 F104L (MTS, 168 h); conditions: Homo sapiens, read-out: RS4, 11 BCL2-F104L
How it was run: (§1)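 Proliferation read-out: MTS for exactly 2 h, then absorbance at 490 nm, with IC50 derived from the fit. Before this, engineered RS4;11 lines (BCL-2 G101V, F104L; 5000 cells/well) were exposed 168 h at 37 °C to serially diluted compound, final 1.4–10000 nM.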

RS4;11-BCL-2 G101V cells = experiment: Cell proliferation assay, engineered RS4;11 cells stably overexpressing BCL-2 G101V (MTS, 168 h); conditions: Homo sapiens, RS4-11, 168 h, read-out: RS4, 11 BCL2- G101V
How it was run: as §1

Structure (SMILES) | IC50 (Toledo cells) | IC50 (RS4;11-BCL-2 F104L cells) | IC50 (RS4;11-BCL-2 G101V cells)
CC(C)c1ccccc1[C@@H]1CCCN1C1CC2(CCN(c3ccc(C(=O)NS(=O)(=O)c4cc5c(c([N+](=O)[O-])c4)N[C@@H]([C@H]4CC[C@](C)(O)CC4)CO5)c(Oc4cc5cc[nH]c5nc4OC[C@@H]4COCCN4C)c3)CC2)C1 (single isomer, unassigned) [Example D-135, N-(((S)-3-((1r,4S)-4-hydroxy-4-methylcyclohexyl)-5-nitro-3,4-dihydro-2H-benzo[b][1,4]oxazin-7-yl)sulfonyl)-4-(2-((R or S)-2-(2-isopropylphenyl)pyrrolidin-1-yl)-7-azaspiro[3.5]nonan-7-yl)-2-((6-(((S)-4-methylmorpholin-3-yl)methoxy)-1H-pyrrolo[2,3-b]pyridin-5-yl)oxy)benzamide] | 1 nM | 1 nM | 1 nM
COCCOc1nc2[nH]ccc2cc1Oc1cc(N2CCC3(CC2)CC(N2CCC[C@H]2c2ccccc2C(C)C)C3)ccc1C(=O)NS(=O)(=O)c1cc2c(c([N+](=O)[O-])c1)N[C@@H]([C@H]1CC[C@](C)(O)CC1)CO2 (single isomer, unassigned) [Example D-17, N-(((S)-3-((1r,4S)-4-hydroxy-4-methylcyclohexyl)-5-nitro-3,4-dihydro-2H-benzo[b][1,4]oxazin-7-yl)sulfonyl)-4-(2-((R or S)-2-(2-isopropylphenyl)pyrrolidin-1-yl)-7-azaspiro[3.5]nonan-7-yl)-2-((6-(2-methoxyethoxy)-1H-pyrrolo[2,3-b]pyridin-5-yl)oxy) benzamide] | 1 nM | 22 nM | 1 nM
CC(C)c1ccccc1[C@@H]1CCC[C@@H]1N1CC2(CCN(c3ccc(C(=O)NS(=O)(=O)c4ccc(NC[C@H]5CC[C@](C)(O)CC5)c([N+](=O)[O-])c4)c(Oc4cc5c(F)c[nH]c5nc4F)c3)CC2)C1 (single isomer, unassigned) [Example D-90, 2-((3,6-difluoro-1H-pyrrolo[2,3-b]pyridin-5-yl)oxy)-N-((4-((1r,4r)-4-hydroxy-4-methylcyclohexyl)methyl)amino)-3-nitrophenyl) sulfonyl)-4-(2-((1S,2S or 1R,2R)-2-(2-isopropylphenyl) cyclopentyl)-2,7-diazaspiro[3.5] nonan-7-yl)benzamide] | 1 nM | 1 nM | 5 nM
CC(C)c1ccccc1[C@@H]1CCCN1C1CC2(CCN(c3ccc(C(=O)NS(=O)(=O)c4cc5c(c([N+](=O)[O-])c4)N[C@@H]([C@H]4CC[C@](C)(O)CC4)CO5)c(Oc4cc5cc[nH]c5nc4F)c3)CC2)C1 (single isomer, unassigned) [Example D-64, 2-((6-fluoro-1H-pyrrolo[2,3-b]pyridin-5-yl)oxy)-N-(((S)-3-((1r,4S)-4-hydroxy-4-methylcyclohexyl)-5-nitro-3,4-dihydro-2H-benzo[b] [1,4]oxazin-7-yl)sulfonyl)-4-(2-((R or S)-2-(2-isopropylphenyl)pyrrolidin-1-yl)-7-azaspiro[3.5]nonan-7-yl)benzamide] | 1 nM | 25 nM | 1 nM
CC(C)c1ccccc1[C@@H]1CCC[C@@H]1N1CC2(CCN(c3ccc(C(=O)NS(=O)(=O)c4ccc(NC[C@H]5CC[C@](C)(O)CC5)c([N+](=O)[O-])c4)c(Oc4cc5c(F)c[nH]c5nc4Cl)c3)CC2)C1 (single isomer, unassigned) [Example D-113, 2-((6-chloro-3-fluoro-1H-pyrrolo [2,3-b]pyridin-5-yl)oxy)-N-((4-((((1r,4r)-4-hydroxy-4-methylcyclohexyl)methyl)amino)-3-nitrophenyl)sulfonyl)-4-(2-((1S,2S or 1R,2R)-2-(2-isopropylphenyl)cyclopentyl)-2,7-diazaspiro[3.5]nonan-7-yl)benzamide] | 1 nM | 1 nM | 19 nM
COc1nc2[nH]cc(F)c2cc1Oc1cc(N2CCC3(CC2)CN([C@H]2CCC[C@H]2c2ccccc2C(C)C)C3)ccc1C(=O)NS(=O)(=O)c1cnc(NC[C@H]2CC[C@](C)(O)CC2)c([N+](=O)[O-])c1 (single isomer, unassigned) [Example A-152, 2-((3-fluoro-6-methoxy-1H-pyrrolo [2,3-b]pyridin-5-yl)oxy)-N-((6-(((1r, 4r)-4-hydroxy-4-methylcyclohexyl)methyl)amino)-5-nitropyridin-3-yl) sulfonyl)-4-(2-((1S,2S or 1R,2R)-2-(2-isopropylphenyl)cyclo-pentyl)-2,7-diazaspiro[3.5]nonan-7-yl) benzamide] | 1 nM | 9 nM | 40 nM
CC(C)c1ccccc1[C@@H]1CCCN1C1CC2(CCN(c3ccc(C(=O)NS(=O)(=O)c4cc5c(c([N+](=O)[O-])c4)N[C@@H]([C@H]4CC[C@](C)(O)CC4)CO5)c(Oc4cc5cc[nH]c5nc4O[C@@H]4CCN(C)C4)c3)CC2)C1 (single isomer, unassigned) [Example D-223, N-(((S)-3-((1r,4S)-4-hydroxy-4-methylcyclohexyl)-5-nitro-3,4-dihydro-2H-benzo[b][1,4]oxazin-7-yl)sulfonyl)-4-(2-((R or S)-2-(2-isopropylphenyl)pyrrolidin-1-yl)-7-azaspiro[3.5]nonan-7-yl)-2-((6-(((R)-1-methylpyrrolidin-3-yl)oxy)-1H-pyrrolo[2,3-b]pyridin-5-yl)oxy)benzamide] | 1 nM | 1 nM | 1 nM
CC(C)c1ccccc1[C@@H]1CCCN1C1CC2(CCN(c3ccc(C(=O)NS(=O)(=O)c4cc5c(c([N+](=O)[O-])c4)N[C@@H]([C@H]4CC[C@](C)(O)CC4)CO5)c(Oc4cc5cc[nH]c5nc4OC[C@@H]4CCCN4C)c3)CC2)C1 (single isomer, unassigned) [Example D-131, N-(((S)-3-((1r,4S)-4-hydroxy-4-methylcyclohexyl)-5-nitro-3,4-dihydro-2H-benzo[b][1,4]oxazin-7-yl)sulfonyl)-4-(2-((R or S)-2-(2-isopropylphenyl)pyrrolidin-1-yl)-7-azaspiro[3.5]nonan-7-yl)-2-((6-(((S)-1-methylpyrrolidin-2-yl)methoxy)-1H-pyrrolo[2,3-b]pyridin-5-yl)oxy)benzamide] | 1 nM | 1 nM | 1 nM
CCOc1nc2[nH]cc(F)c2cc1Oc1cc(N2CCC3(CC2)CN([C@H]2CCC[C@H]2c2ccccc2C(C)C)C3)ccc1C(=O)NS(=O)(=O)c1cc2c(c([N+](=O)[O-])c1)N[C@@H]([C@H]1CC[C@](C)(O)CC1)CO2 (single isomer, unassigned) [Example D-103, 2-((6-ethoxy-3-fluoro-1H-pyrrolo [2,3-b]pyridin-5-yl)oxy)-N-(((S)-3-((1r,4S)-4-hydroxy-4-methylcyclohexyl)-5-nitro-3,4-dihydro-2H-benzo[b][1,4]oxazin-7-yl)sulfonyl)-4-(2-((1S,2S or 1R,2R)-2-(2-isopropylphenyl)cyclopentyl)-2,7-diazaspiro[3.5]nonan-7-yl)benzamide] | 1 nM | 1 nM | 1 nM
CC(C)c1ccccc1[C@@H]1CCCN1C1CC2(CCN(c3ccc(C(=O)NS(=O)(=O)c4cc5c(c([N+](=O)[O-])c4)N[C@@H]([C@H]4CC[C@](C)(O)CC4)CO5)c(Oc4cc5cc[nH]c5nc4OC[C@H]4COCCN4C)c3)CC2)C1 (single isomer, unassigned) [Example D-134, N-(((S)-3-((1r,4S)-4-hydroxy-4-methylcyclohexyl)-5-nitro-3,4-dihydro-2H-benzo[b][1,4]oxazin-7-yl)sulfonyl)-4-(2-((R or S)-2-(2-isopropylphenyl)pyrrolidin-1-yl)-7-azaspiro[3.5]nonan-7-yl)-2-((6-(((7)-4-methylmorpholin-3-yl)methoxy)-1H-pyrrolo[2,3-b]pyridin-5-yl)oxy)benzamide] | 1 nM | 1 nM | 1 nM
CC(C)c1ccccc1[C@@H]1CCCN1C1CC2(CCN(c3ccc(C(=O)NS(=O)(=O)c4cc5c(c([N+](=O)[O-])c4)N[C@@H]([C@H]4CC[C@](C)(O)CC4)CO5)c(Oc4cc5c(F)c[nH]c5nc4F)c3)CC2)C1 (single isomer, unassigned) [Example D-55, 2-((3,6-difluoro-1H-pyrrolo[2,3-b]pyridin-5-yl)oxy)-N-(((S)-3-((1r,4S)-4-hydroxy-4-methylcyclohexyl)-5-nitro-3,4-dihydro-2H-benzo [b][1,4]oxazin-7-yl)sulfonyl)-4-(2-((R or S)-2-(2-isopropylphenyl)pyrrolidin-1-yl)-7-azaspiro[3.5]nonan-7-yl)benzamide] | 1 nM | 19 nM | 14 nM
CC(C)c1ccccc1[C@@H]1CCCN1C1CC2(CCN(c3ccc(C(=O)NS(=O)(=O)c4cc5c(c([N+](=O)[O-])c4)N[C@@H]([C@H]4CC[C@](C)(O)CC4)CO5)c(Oc4cc5cc[nH]c5nc4OC[C@H]4CCN4C)c3)CC2)C1 (single isomer, unassigned) [Example D-123, N-(((S)-3-((1r,4S)-4-hydroxy-4-methylcyclohexyl)-5-nitro-3,4-dihydro-2H-benzo[b][1,4]oxazin-7-yl)sulfonyl)-4-(2-((R or S)-2-(2-isopropylphenyl)pyrrolidin-1-yl)-7-azaspiro[3.5]nonan-7-yl)-2-((6-(((7)-1-methylazetidin-2-yl)methoxy)-1H-pyrrolo[2,3-b]pyridin-5-yl)oxy)benzamide] | 1 nM | 11 nM | 1 nM
